Experimental data published in patent US20250019386A1, “PYRROLO[1,2-b]-2-PYRIDAZINONE COMPOUNDS AS 5-HT4 RECEPTOR AGONISTS” (SUVEN LIFE SCIENCES LIMITED, priority 2022, published 2025).

How the values were obtained:
5-HT4 receptors = 5-HT4 receptors (Homo sapiens (Human), UniProt Q13639); assay: Determination of EC50 values for 5-HT4 receptor (pCRE-Luc reporter assay); type: cell-based; conditions: CHO cells expressing recombinant human 5-HT4 receptor and pCRE-Luc reporter; 4 h incubation; luciferase activity
5-HT4 receptors, sequence (Q13639 whole entry): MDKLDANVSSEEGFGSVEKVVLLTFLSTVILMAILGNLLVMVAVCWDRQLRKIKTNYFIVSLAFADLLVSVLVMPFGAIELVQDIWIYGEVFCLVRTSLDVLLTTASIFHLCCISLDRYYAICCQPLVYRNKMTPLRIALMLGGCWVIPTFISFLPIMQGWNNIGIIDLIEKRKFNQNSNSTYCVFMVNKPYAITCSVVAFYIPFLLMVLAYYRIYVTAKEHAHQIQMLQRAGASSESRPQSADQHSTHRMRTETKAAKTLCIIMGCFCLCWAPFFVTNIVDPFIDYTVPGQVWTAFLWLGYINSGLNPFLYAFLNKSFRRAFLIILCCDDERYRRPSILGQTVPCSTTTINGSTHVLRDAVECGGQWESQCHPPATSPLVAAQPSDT
Description: A stable CHO cell line expressing recombinant human 5-HT4 receptor and pCRE-Luc reporter system was used for cell-based assay. The assay offers a non-radioactive based approach to determine binding of a compound to GPCRs. In this specific assay, the level of intracellular cyclic AMP, which is modulated by activation, or inhibition of the receptor is measured. The recombinant cells harbor luciferase reporter gene under the control of cAMP response element.
The above cells were grown in 96 well clear bottom white plates in Ham's F12 medium containing 10% fetal bovine serum. Prior to the addition of compounds or standard agonist, cells were serum starved overnight. Increasing concentrations of test compounds were added to the cells in OptiMEM medium. The incubation was continued in CO2 incubator at 37° C. with 5% CO2 conditions for 4 h. Medium was removed and cells were washed with phosphate buffered saline. The cells were lysed and luciferase activity was measured in a Luminometer. Concentration-response data was generated using the luciferase assay, following incubation of cells with receptor ligands, were analyzed by subtracting basal levels (i.e. with medium alone), then normalizing values as a percentage of controls (endogenous agonist serotonin (10 μM)). […] EC50 values of the compounds were defined as the concentration required in stimulating the luciferase activity by 50%.

[1] = Rat pharmacokinetic study; type: in vivo; conditions: male Wistar rats, plasma
Description: Male Wistar rats (250±50 g) were used as experimental animals. Animals were housed individually in polypropylene cages. Two days prior to study, rats were anesthetized with isoflurane for surgical placement of jugular vein catheter. Rats were randomly divided for oral (3 mg/kg and 10 mL/kg as dose volume) and intravenous (1 mg/kg and 2 mL/kg as dose volume) dosing (n=3/group) and fasted overnight before oral dosing (p.o.). However, rats allocated to intravenous dosing food and water was provided ad libitum.
Intravenous formulation was prepared by using water for injection as vehicle. For Oral, formulation was prepared by using reagent grade water as vehicle. The dose formulations were prepared freshly on the day of dosing.
After dosing of animal, each time point a 200 μL of blood sample was collected through jugular vein and replenished with an equivalent volume of normal saline. The collected blood sample was transferred into a labeled eppendorf tube containing 10 μL of sodium heparin (1000 IU/mL) as an anticoagulant. Typically blood samples were collected at following time points: 0.08, 0.25, 0.5, 1, 2, 4, 6, 8, and 24 h post dose. Blood was centrifuged at 4000 rpm for 10 min. Plasma was separated and stored frozen at −80° C. until analysis. The concentrations of the test compounds were quantified in plasma by qualified LC-MS/MS method using a suitable extraction technique. The test compounds were quantified in the calibration range around 1-2000 ng/mL in plasma. Study samples were analyzed using calibration samples in the batch and quality control samples spread across the batch.
Pharmacokinetic parameters Cmax, AUCt, t1/2 and bioavailability were calculated by non-compartmental model using standard non-compartmental model by using Phoenix WinNonlin 6.4 version Software.

[2] = Rat brain penetration study; type: in vivo; conditions: brain/plasma, oral (gavage) 3 mg/kg, male Wistar rats, brain concentrations below LLOQ taken as zero, read-out: Single dose Brain Penetration (Cb/Cp)
Description: Male Wistar rats (225±25 g) were used as experimental animals. Three animals were housed in each cage. Animals were given water and food ad libitum throughout the experiment and maintained on a 12 h light/dark cycle.
Brain penetration was determined in discrete manner in rats. One day prior to dosing day, male Wistar rats were acclimatized. After acclimatization, the rats were grouped according to their weight. In each group, 3 animals were kept in individual cages and allowed free access to food and water. At each time point (0.5, 1, and 2 h) n=3 animals were used.
The compounds of formula (I) were suitably preformulated and administered orally at (free base equivalent) 3 mg/kg. Blood samples were collected via, cardiac puncture by using isoflurane anesthesia. The animals were sacrificed to collect brain tissue. Plasma was separated and brain samples were homogenized and stored frozen at −20° C. until analysis.
The concentrations of the compounds of formula (I) were quantified in plasma and brain homogenate by qualified LC-MS/MS method using a suitable extraction technique. The compounds of formula (I) were quantified in the calibration range of 1-2000 ng/mL in plasma and brain homogenate. Study samples were analyzed using calibration samples in the batch and quality control samples spread across the batch. Extent of brain-plasma ratio was calculated (Cb/Cp). Brain concentrations were found below LLOQ and a value of zero was considered for calculation purposes.

| SMILES | EC50 (5-HT4 receptors) | further results |
| --- | --- | --- |
| CC(=O)N(C)C[C@H](O)CN1C2CCC1CC(NC(=O)c1cc3cccn3n(C(C)C)c1=O)C2 (stereo partly drawn) [Example 15, (R)-N-{8-[2-Hydroxy-3-[(N-methyl)acetamido]propyl]-8-azabicyclo[3.2.1]oct-3-yl} [1-isopropyl-2-oxo-1,2-dihydro pyrrolo[1,2-b]pyridazine]-3-carboxamide] | 8 nM |  |
| COC(=O)NCCN1C2CCC1CC(NC(=O)c1cc3cccn3n(C(C)C)c1=O)C2 (stereo not shown) [Example 35, N-{8-[2-Carbomethoxyaminomethyl]-8-azabicyclo[3.2.1]oct-3-yl} [1-isopropyl-2-oxo-1,2-dihydro pyrrolo[1,2-b]pyridazin]-3-carboxamide] | 12 nM |  |
| COC(=O)NCCCN1C2CCC1CC(NC(=O)c1cc3cccn3n(C(C)C)c1=O)C2 (stereo not shown) [Example 33, N-{8-[3-Carbomethoxyaminopropyl]-8-azabicyclo[3.2.1]oct-3-yl} [1-isopropyl-2-oxo-1,2-dihydro pyrrolo[1,2-b]pyridazin]-3-carboxamide] | 12 nM |  |
| CC(C)n1c(=O)c(C(=O)NC2CC3CCC(C2)N3C[C@@H](O)CN(C)S(C)(=O)=O)c(O)c2cccn21 (stereo partly drawn) [Example 8, (R)-N-{8-[2-Hydroxy-3-[(N-methyl)methanesulfonamido]propyl]-8-azabicyclo[3.2.1]oct-3-yl} [4-hydroxy-1-isopropyl-2-oxo-1,2-dihydro pyrrolo[1,2-b]pyridazine]-3-carboxamide L-(+)-tartarate] | 6.1 nM |  |
| CC(C)n1c(=O)c(C(=O)NC2CC3CCC(C2)N3C[C@@H](O)CN2CCN(S(C)(=O)=O)CC2)cc2cccn21 (stereo partly drawn) [Example 18, (R)-N-{8-[2-Hydroxy-3-[(1-methanesulfonylpiperazin)-4-yl]propyl]-8-azabicyclo[3.2.1]oct-3-yl} [1-isopropyl-2-oxo-1,2-dihydro pyrrolo[1,2-b]pyridazin]-3-carboxamide L(+)tartarate] | 2.4 nM |  |
| CC(C)n1c(=O)c(C(=O)NC2CC3CCC(C2)N3CCNS(=O)(=O)C(C)C)cc2cccn21 (stereo not shown) [Example 29, N-{8-[2-Isopropylsulfonylaminoethyl]-8-azabicyclo[3.2.1]oct-3-yl} [1-isopropyl-2-oxo-1,2-dihydro pyrrolo[1,2-b]pyridazin]-3-carboxamide] | 16 nM |  |
| CC(C)n1c(=O)c(C(=O)NC2CC3CCC(C2)N3CCCNS(=O)(=O)C(C)C)cc2cccn21 (stereo not shown) [Example 25, N-{8-[3-Isopropylsulfonylaminopropyl]-8-azabicyclo[3.2.1]oct-3-yl} [1-isopropyl-2-oxo-1,2-dihydro pyrrolo[1,2-b]pyridazin]-3-carboxamide] | 13 nM |  |
| COC(=O)NCCCN1C2CCC1CC(NC(=O)c1cc3cccn3n(C(C)C)c1=O)C2.O=C(O)C(O)C(O)C(=O)O [Example 34, N-{8-[3-Carbomethoxyaminopropyl]-8-azabicyclo[3.2.1]oct-3-yl} [1-isopropyl-2-oxo-1,2-dihydro pyrrolo[1,2-b]pyridazin]-3-carboxamide L-(+)-tartrate] | 18 nM | AUC(0-t) ([1]; intravenous (bolus), 1 mg/kg): 119 ± 16 ng·h/mL; half-life ([1]; intravenous (bolus), 1 mg/kg): 1.3 ± 0.3 h; AUC(0-t) ([1]; oral (gavage), 3 mg/kg): 274 ± 74 ng·h/mL; Cmax ([1]; oral (gavage), 3 mg/kg): 174 ± 49 ng/mL; bioavailability ([1]; oral 3 mg/kg vs intravenous 1 mg/kg): 77 ± 21%; Kp [2]: 0 |
| CC(C)n1c(=O)c(C(=O)NC2CC3CCC(C2)N3C[C@H](O)CN(C)S(C)(=O)=O)cc2cccn21 (single isomer, unassigned) [Example 3] | 9 nM |  |
| CC(C)n1c(=O)c(C(=O)NC2CC3CCC(C2)N3C[C@@H](O)CN2CCN(S(C)(=O)=O)CC2)c(O)c2cccn21 (stereo partly drawn) [Example 20, (R)-N-{8-[2-Hydroxy-3-[(1-methanesulfonylpiperazin)-4-yl]propyl]-8-azabicyclo[3.2.1]oct-3-yl} [4-hydroxy-1-isopropyl-2-oxo-1,2-dihydro pyrrolo[1,2-b]pyridazin]-3-carboxamide L-(+)-tartarate] | 14 nM |  |
| CC(C)n1c(=O)c(C(=O)NC2CC3CCC(C2)N3C[C@@H](O)CN(C)S(C)(=O)=O)c(O)c2cccn21 (stereo partly drawn) [Example 7, (R)-N-{8-[2-Hydroxy-3-[(N-methyl)methanesulfonamido]propyl]-8-azabicyclo[3.2.1]oct-3-yl} [4-hydroxy-1-isopropyl-2-oxo-1,2-dihydro pyrrolo[1,2-b]pyridazine]-3-carboxamide] | 10.1 nM |  |
| CC(=O)N1CCN(CCN2C3CCC2CC(NC(=O)c2cc4cccn4n(C(C)C)c2=O)C3)CC1 [Example 38, N-{8-[2-(4-Acetylpiperazin-1-yl)ethyl]-8-azabicyclo[3.2.1]oct-3-yl} [1-isopropyl-2-oxo-1,2-dihydro pyrrolo[1,2-b]pyridazine]-3-carboxamide L-(+)-tartrate] | 15.4 nM |  |
| CC(=O)NCCCN1C2CCC1CC(NC(=O)c1cc3cccn3n(C(C)C)c1=O)C2 (stereo not shown) [Example 31, N-{8-[3-Acetamidopropyl]-8-azabicyclo[3.2.1]oct-3-yl} [1-isopropyl-2-oxo-1,2-dihydro pyrrolo[1,2-b]pyridazin]-3-carboxamide] | 35.1 nM |  |
| CC(C)n1c(=O)c(C(=O)NC2CC3CCC(C2)N3CCCNS(C)(=O)=O)cc2cccn21 [Example 24, N-{8-[3-[methanesulfonamido]propyl]-8-azabicyclo[3.2.1]oct-3-yl} [1-isopropyl-2-oxo-1,2-dihydro pyrrolo[1,2-b]pyridazine]-3-carboxamide L-(+)-tartarate] | 11 nM |  |
| CC(C)n1c(=O)c(C(=O)NC2CC3CCC(C2)N3C[C@@H](O)CNS(C)(=O)=O)cc2cccn21 (stereo partly drawn) [Example 14, (R)-N-{8-[2-Hydroxy-3-(methanesulfonamido)propyl]-8-azabicyclo[3.2.1]oct-3-yl} [1-isopropyl-2-oxo-1,2-dihydro pyrrolo[1,2-b]pyridazine]-3-carboxamide L-(+)-tartarate] | 6.3 nM |  |
| CC(C)n1c(=O)c(C(=O)NC2CC3CCC(C2)N3CC(O)CN(C)S(C)(=O)=O)cc2cccn21 (racemic) [Example 5, Racemic-N-{8-[2-Hydroxy-3-[(N-methyl)methanesulfonamido]propyl]-8-azabicyclo[3.2.1]oct-3-yl} [1-isopropyl-2-oxo-1,2-dihydro pyrrolo[1,2-b]pyridazine]-3-carboxamide] | 3.1 nM |  |
| CC(C)n1c(=O)c(C(=O)NC2CC3CCC(C2)N3CCCN(C)S(C)(=O)=O)cc2cccn21 (stereo not shown) [Example 22, N-{8-[3-[(N-Methyl)methanesulfonamido]propyl]-8-azabicyclo[3.2.1]oct-3-yl} [1-isopropyl-2-oxo-1,2-dihydro pyrrolo[1,2-b]pyridazine]-3-carboxamide] | 58 nM |  |
| CC(C)n1c(=O)c(C(=O)NC2CC3CCC(C2)N3C[C@@H](O)CN(C)S(C)(=O)=O)cc2cccn21 (single isomer, unassigned) [Example 1] | 2 nM |  |
| CC(C)n1c(=O)c(C(=O)NC2CC3CCC(C2)N3CC(O)CN(C)S(C)(=O)=O)cc2cccn21 (racemic) [Example 6, Racemic-N-{8-[2-Hydroxy-3-[(N-methyl)methanesulfonamido]propyl]-8-azabicyclo[3.2.1]oct-3-yl} [1-isopropyl-2-oxo-1,2-dihydro pyrrolo[1,2-b]pyridazine]-3-carboxamide L(+)-tartarate] | 3.3 nM |  |
